Measured values published in BindingDB's records for doi:10.1016/0968-0896(96)00075-2 (Sapienza University of Rome, 1996).
pIC50: −log10 of the molar value.

Each compound was assayed against T1, Gag-Pol polyprotein [588-1027]/[588-1147] (Human immunodeficiency virus 1, UniProt P04585) (assay: HIV-1 RT Assay). Conditions: pH 7.8; 37 °C.
T1 construct: 588-1027; 588-1147

With `O=C1Nc2ccccc2S(=O)(=O)n2cccc21` [2-thia-3,9-diazatricyclo[8.4.0.0^{3,7}]tetradeca-1(10),4,6,11,13-pentaene-2,2,8-trione] as the compound, how does the pIC50 read?
The pIC50 was 5.40.

`O=C1Nc2ccccc2Sn2cccc21` [5H-Pyrrolo [1,2-b] [1,2,5] benzothiadiazepin-11 (10H) -one] was tested. Which pIC50 did it give?
Its pIC50 is less than 4.00.

`Cn1c2ccccc2n2c(c3cccn31)=C(O)N(CCN1CCOCC1)CC2=O` [7-methyl-17-[2-(morpholin-4-yl)ethyl]-6,7,14,17-tetraazatetracyclo[12.4.0.0^{2,6}.0^{8,13}]octadeca-2,4,8(13),9,11-pentaene-15,18-dione] was tested. Which pIC50 did it give?
The pIC50 was 5.20.

With `Cn1c2ccccc2n2c(c3cccn31)=C(O)N(CCN1CCCCC1)CC2=O` [7-methyl-17-[2-(piperidin-1-yl)ethyl]-6,7,14,17-tetraazatetracyclo[12.4.0.0^{2,6}.0^{8,13}]octadeca-2,4,8(13),9,11-pentaene-15,18-dione] as the compound, how does the pIC50 read?
Its pIC50 is less than 4.00.

With `C=CCN1C(=O)c2cccn2S(=O)(=O)c2ccccc21` [9-(prop-2-en-1-yl)-2-thia-3,9-diazatricyclo[8.4.0.0^{3,7}]tetradeca-1(10),4,6,11,13-pentaene-2,2,8-trione] as the compound, how does the pIC50 read?
Its pIC50 is 5.02.

`CC(C)N1C(=O)c2cccn2S(=O)(=O)c2ccccc21` [9-(propan-2-yl)-2-thia-3,9-diazatricyclo[8.4.0.0^{3,7}]tetradeca-1(10),4,6,11,13-pentaene-2,2,8-trione] was tested. Which pIC50 did it give?
The pIC50 was 5.20.

`C/C=C/CN1C(=O)c2cccn2S(=O)(=O)c2ccccc21` [9-[(2E)-but-2-en-1-yl]-2-thia-3,9-diazatricyclo[8.4.0.0^{3,7}]tetradeca-1(10),4,6,11,13-pentaene-2,2,8-trione] was tested. Which pIC50 did it give?
Its pIC50 is 4.68.

`C/C=C\CN1C(=O)c2cccn2S(=O)(=O)c2cc(Cl)ccc21` [9-[(2Z)-but-2-en-1-yl]-13-chloro-2-thia-3,9-diazatricyclo[8.4.0.0^{3,7}]tetradeca-1(10),4,6,11,13-pentaene-2,2,8-trione] was tested. Which pIC50 did it give?
The pIC50 was 5.51.

With `CCN1C(=O)c2cccn2S(=O)(=O)c2ccccc21` [9-ethyl-2-thia-3,9-diazatricyclo[8.4.0.0^{3,7}]tetradeca-1(10),4,6,11,13-pentaene-2,2,8-trione] as the compound, how does the pIC50 read?
The pIC50 was 5.00.

`CCCN1C(=O)c2cccn2S(=O)(=O)c2ccccc21` [9-propyl-2-thia-3,9-diazatricyclo[8.4.0.0^{3,7}]tetradeca-1(10),4,6,11,13-pentaene-2,2,8-trione] was tested. Which pIC50 did it give?
Its pIC50 is 4.62.

`CN1C(=O)c2cccn2S(=O)(=O)c2ccccc21` [10-methyi-5H-pyrrolo1,2-b] [1,2,5] benzothiadiazepin-11(10H)-one-5,5-dioxide] was tested. Which pIC50 did it give?
Its pIC50 is 4.96.

How did the pIC50 turn out when `O=C1Nc2ccc(Cl)cc2S(=O)(=O)n2cccc21` [13-chloro-2-thia-3,9-diazatricyclo[8.4.0.0^{3,7}]tetradeca-1(10),4,6,11,13-pentaene-2,2,8-trione] was run?
The pIC50 was 6.15.

`C=CCN1C(=O)c2cccn2S(=O)(=O)c2cc(Cl)ccc21` [13-chloro-9-(prop-2-en-1-yl)-2-thia-3,9-diazatricyclo[8.4.0.0^{3,7}]tetradeca-1(10),4,6,11,13-pentaene-2,2,8-trione] was tested. Which pIC50 did it give?
Its pIC50 is 5.54.

With `CCN1C(=O)c2cccn2S(=O)(=O)c2cc(Cl)ccc21` [13-chloro-9-ethyl-2-thia-3,9-diazatricyclo[8.4.0.0^{3,7}]tetradeca-1(10),4,6,11,13-pentaene-2,2,8-trione] as the compound, how does the pIC50 read?
The pIC50 was 5.57.

`CN1C(=O)c2cccn2S(=O)(=O)c2cc(Cl)ccc21` [13-chloro-9-methyl-2-thia-3,9-diazatricyclo[8.4.0.0^{3,7}]tetradeca-1(10),4,6,11,13-pentaene-2,2,8-trione] was tested. Which pIC50 did it give?
The pIC50 was 6.30.

With `CN(C)CCCN1CC(=O)n2c(c3cccn3n(C)c3ccccc32)=C1O` [17-[3-(dimethylamino)propyl]-7-methyl-6,7,14,17-tetraazatetracyclo[12.4.0.0^{2,6}.0^{8,13}]octadeca-2,4,8(13),9,11-pentaene-15,18-dione] as the compound, how does the pIC50 read?
The pIC50 was 4.62.

`CCOC(=O)CN1C(=O)c2cccn2S(=O)(=O)c2ccccc21` [ethyl 2-(2,2,8-trioxo-2-thia-3,9-diazatricyclo[8.4.0.0^{3,7}]tetradeca-1(10),4,6,11,13-pentaen-9-yl)acetate] was tested. Which pIC50 did it give?
The pIC50 was 4.51.
